Assay results from patent US8729088B2, “Toll-like receptor modulators and treatment of diseases” (The Regents of the University of California, priority 2009, dated 2014).
“Also recorded” adds a separate entry of the source.

Columns and labels:
TLR7 [1] = biological target: T1, TLR7 (Mus musculus, UniProt P58681); assay: In vitro cytokine induction in murine macrophages (RAW264.7, BMDM), ELISA; type: cell-based; parameters: endogenous in cells; host or cells: RAW264.7 (ATCC); primary BMDM from C57BL/6 mice; conditions: for potency compared to the unconjugated TLR7 (SM): ELISA; for potency of cytokine induction in comparison to the unmodified TLR7 agonist: in vitro and in vivo
T1 sequence (P58681 27-1050): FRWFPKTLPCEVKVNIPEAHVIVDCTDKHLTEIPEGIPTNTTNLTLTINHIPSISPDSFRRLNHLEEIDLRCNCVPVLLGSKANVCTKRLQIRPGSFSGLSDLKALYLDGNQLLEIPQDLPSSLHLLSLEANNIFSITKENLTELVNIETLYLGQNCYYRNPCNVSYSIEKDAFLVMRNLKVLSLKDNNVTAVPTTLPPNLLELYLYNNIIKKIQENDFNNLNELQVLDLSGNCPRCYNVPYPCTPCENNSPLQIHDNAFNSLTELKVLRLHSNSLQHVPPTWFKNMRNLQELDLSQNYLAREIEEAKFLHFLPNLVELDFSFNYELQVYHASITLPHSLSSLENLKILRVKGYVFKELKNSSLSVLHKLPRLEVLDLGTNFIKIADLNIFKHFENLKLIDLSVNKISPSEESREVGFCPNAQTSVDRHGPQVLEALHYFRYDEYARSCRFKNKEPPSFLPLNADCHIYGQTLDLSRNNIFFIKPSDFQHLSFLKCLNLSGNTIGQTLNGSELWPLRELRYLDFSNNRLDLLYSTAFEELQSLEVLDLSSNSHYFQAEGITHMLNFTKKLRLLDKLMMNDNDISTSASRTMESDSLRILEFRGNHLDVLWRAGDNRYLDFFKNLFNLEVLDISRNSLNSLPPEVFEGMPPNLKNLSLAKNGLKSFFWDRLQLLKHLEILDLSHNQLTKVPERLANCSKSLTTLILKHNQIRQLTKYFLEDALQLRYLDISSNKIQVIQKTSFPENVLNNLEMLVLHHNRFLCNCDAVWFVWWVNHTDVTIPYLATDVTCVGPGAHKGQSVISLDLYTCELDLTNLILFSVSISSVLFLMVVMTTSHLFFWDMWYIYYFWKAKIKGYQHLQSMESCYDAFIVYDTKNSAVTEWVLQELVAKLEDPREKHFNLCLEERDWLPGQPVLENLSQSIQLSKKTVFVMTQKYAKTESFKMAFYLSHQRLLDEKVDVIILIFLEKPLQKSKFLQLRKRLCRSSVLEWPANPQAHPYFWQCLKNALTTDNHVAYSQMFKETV
Description: (§1) In vitro measurements of cytokine induction were performed using the mouse leukemic monocyte macrophage cell line, RAW264.7. […] BMDM were prepared from C57BL/6 and TLR7 deficient mice as described in Wu, C. C et al., (2007) “Immunotherapeutic activity of a conjugate of a Toll-like receptor 7 ligand”, Proc Natl Acad Sci USA 104, 3990-5.
(§2) In general, RAW264.7 cells or BMDM were incubated with various concentrations of conjugates for 18 hours at 37° C., 5% CO2 and culture supernatants were collected. The levels of cytokines (IL-6, IL-12 or TNF-α in the supernatants were determined by ELISA (BD Biosciences Pharmingen, La Jolla, Calif.) (Cho, H. J et al., “Immunostimulatory DNA-based vaccines induce cytotoxic lymphocyte activity by a T-helper cell-independent mechanism” [see comments], Nat Biotechnol 18, 509-14 (2000)), and the results presented in FIG. 2A-D. Data are mean±SEM of triplicates and are representative of three independent experiments. Minimum detection levels of these cytokines were 15 pg/mL.
TNFα levels were measured (see FIG. 2A) by incubating approximately 1×10^6/mL RAW 264.7 cells with the various conjugates or controls, as described above. IL-6 and IL12 levels were measured (see FIG. 2B-D) by incubating 0.5×10^6/mL BMDM with the various conjugates or controls, as described above.
Using a similar assay, the in vitro potency of the lipid-TLR agonist conjugates (FIG. 1, compound 6), PEG-TLR7 agonist conjugates (FIG. 1, compound 8), and PEG-lipid (FIG. 1, compound 9) conjugates were compared using a murine macrophage cell line, RAW264, and primary bone marrow derived macrophages (BMDM). The respective cells were stimulated for 18 hours with serially diluted TLR7 conjugates and the levels of cytokines released in the media were measured by ELISA and compared to the unconjugated TLR7 agonist (SM) (see FIG. 2A, panels A-D).

[2] = system: C57BL/6 mice immunized with ovalbumin (OVA); assay: Adjuvanticity: subcutaneous immunization with OVA mixed with TLR7 conjugates; type: in vivo, mouse
Description: Each ELISA plate contained a titration of a previously quantitated serum to generate a standard curve. […] The various sera samples were tested at a 1:100 dilution.
Spleenocytes were prepared from the harvested spleens.
The efficiency of adjuvanticity was assessed by measurement of the levels and isotypes of the antigen-specific IgG that the vaccine induces, in particular IgG1 and IgG2 (Mosmann, T. R., and Coffman, R. L., ‘TH1 and TH2 cells: different patterns of lymphokine secretion lead to different functional properties’, Annual Review Immunology 7:145-73 (1989)). The groups of C57BL/6 mice (n=5 animals per group) were subcutaneously immunized with OVA (ovalbumin) mixed with TLR7 conjugates. […] Mice immunized with saline or OVA plus vehicle (0.1% DMSO) were used as negative controls.

TLR7 [3] = assay: Cytokine induction in BMDM from wild type and TLR7 deficient mice; type: cell-based, mouse; conditions: BMDM from TLR7 deficient mice
Description: as §1, §2

Solubility observations = type: physicochemical
C57BL/6 mice [4] = assay: In vivo evaluation of adverse effects of TLR7 conjugates; conditions: 10 nmoles per mouse with OVA
Description: Immunological reaction initiation (e.g. adjuvanticity) by TLR7 conjugates was also examined. Groups (n=5) of C57BL/6 mice were subcutaneously immunized with 20 μg ovalbumin (OVA) mixed with approximately 10 nmol of various TLR7 conjugates, on days 0 and 7, where 10 nmol is a dosage target for the TLR7 portion of the conjugate, and the actual amount will be dependent on the actual chemical formula of each conjugate. […] Sera were collected on days 0, 7, 14, 21, 28, 42 and 56. Mice immunized with saline or OVA mixed with vehicle served as controls. Mice were sacrificed on day 56 and the spleens were harvested for preparation of splenocytes and histological slides. Approximately 200 microliters of a 2.5×10^6/mL spleen cell stock were aliquoted into round-bottom tissue culture microtiter plates in triplicate in a total volume of 200 μl RPMI 1640 complete medium [RPMI1640 (Irvine Scientific, Irvine, Calif.) supplemented with 10% heat-inactivated FCS, 2 mM L-glutamine, and 100 U/mL penicillin/100 μg/mL streptomycin] and restimulated with either 100 μg/mL OVA or medium alone. […] Sections 5 μm thick were stained with hematoxylin and eosin (H&E) and evaluated under the microscope. […]
Therefore, as part of the experimental protocol, body weight and skin reaction (at site of injection) of the mice immunized, with lipid-TLR7 agonist conjugates, was monitored. […]

C57BL/6 mice [5] = assay: Thioglycolate induced peritonitis (peritoneal neutrophil infiltration); conditions: for cell infiltration, particularly neutrophil, to the peritoneal cavity: three days
Description: Peritoneal cells were collected four hours after TG injection. Total cells were counted by haematocytometer and neutrophils were morphologically identified.
4 hours post TG injection total peritoneal cells were harvested and counted. Neutrophils were identified morphologically and counted.
One day after the last treatment, mice received intraperitoneal injection of 2 ml thioglycollate medium. […] Three hours after the thioglycollate injection, neutrophil infiltration to the peritoneum was evaluated.

C57BL/6 mice [6] = assay: MOG induced experimental autoimmune encephalomyelitis (EAE)
Description: The effect of compound (8) on experimental autoimmune encephalomyelitis (EAE) was determined using C57BL/6 mice treated with myelin oligodendrocyte glycoprotein (MOG).
Treatment with MOG (or MOG peptides) may be used to induce EAE. Mice were treated with MOG protein for 6 days. On day 6 and onward (see FIG. 8), 50 nmoles of compound (8) or PBS were intravenously (i.v.) injected everyday. EAE clinical scores were used as a clinical metric for demyelination and were determined visually.
MOG protein was also used to evaluate potential adverse effect of various TLR7 conjugates, as described above. Evaluation of the results were by observation of various symptoms associated with MOG induced EAE (e.g., brain inflammation, demyelination of neurons and the like).

[7] = system: pro-inflammatory cytokines (IL-6, TNF-α) in sera; assay: In vivo kinetics of pro-inflammatory cytokine induction after intravenous injection; parameters: species or system mouse
Description: The pharmacokinetics of pro inflammatory cytokine induction by TLR7 conjugates was examined using 6- to 8-week old C57BL/6 mice. […] Blood samples were collected 2, 4, 6, 24 or 48 hours after injections. Sera were separated and kept at −20° C. until use.

[8] = 50 nmoles i.v. for three days before thioglycolate

With `CCCCCCCC/C=C\CCCCCCCC(=O)OCC(COP(=O)(O)OCCNC(=O)CCc1cn(CCOCCOCCOCCOCCOCCOCCOCCOCCOCCOCCNC(=O)c2ccc(Cn3c(O)nc4c(N)nc(OCCOC)nc43)cc2)nn1)OC(=O)CCCCCCC/C=C\CCCCCCCC` (stereo not drawn) [Compound 9, 2-(3-(1-(1-(4-((6-amino-8-hydroxy-2-(2-methoxyethoxy)-9H-purin-9-yl)methyl)phenyl)-1-oxo-5,8,11,14,17,20,23,26,29,32-decaoxa-2-azatetratriacontan-34-yl)-1H-1,2,3-triazole-4-yl)propanamido)ethyl 2,3-bis(oleoyloxy)propyl phosphate] the “potency compared to the unconjugated TLR7 (SM)” value (TLR7 [1]; RAW264, BMDM, 18 hours) was “restored their potency to the similar level of the unconjugated TLR7 (SM)”, the “potency of cytokine induction in comparison to the unmodified TLR7 agonist” value (TLR7 [1]) was “restored” and the “Th1 response (IgG2a levels)” value ([2]; mouse, in vivo) was “minimal Th1 response”. The “Th2 immune response (IgG1 levels)” value ([2]; mouse, in vivo) was “induce a Th2 immune response” and the “IL-12 and IL-6 induction” value (TLR7 [3]) was “little or no IL-12 and IL-6”.
For `CCCCCCCC/C=C\CCCCCCCC(=O)OCC(COP(=O)(O)OCCNC(=O)c1ccc(Cn2c(=O)[nH]c3c(N)nc(OCCOC)nc32)cc1)OC(=O)CCCCCCC/C=C\CCCCCCCC` (stereo not drawn) [Compound 6, 2-(4-((6-amino-2-(2-methoxyethoxy)-8-oxo-7H-purin-9(8H)-yl)methyl)benzamido)ethyl 2,3-bis(oleoyloxy)propyl phosphate], the “potency as a cytokine inducer compared to the unconjugated agonist” value (TLR7 [1]; normalized to the molar level of the unconjugated agonist, RAW264, BMDM, 18 hours) was 10 fold, the “dissolution in suitable solvents for testing” value (Solubility observations) was “difficulty in dissolution” and the “average body weights versus mice injected saline” value (C57BL/6 mice [4]) was “No significant differences”. For the same compound, the “onset of induction of anti-OVA antibodies” value ([2]; OVA mixed with conjugate, s.c., days 0 and 7) was 14 days, the “OVA-specific IFNγ secretion by spleen cells” value ([2]; day 56 splenocytes restimulated with OVA) was “enhanced” and the “anti-OVA IgG2a levels” value ([2]; serum, ELISA, days 0-56) was “continuously increased; also recorded: rapid elevation; also recorded: sustained and further accelerated levels”. The “IL-12 and IL-6 induction” value (TLR7 [3]) was “little or no IL-12 and IL-6”.
With `COCCOc1nc(N)c2nc(O)n(Cc3ccc(C(=O)NCCOCCOCCOCCOCCOCCOCCOCCOCCOCCOCCn4cc(CCC(=O)O)nn4)cc3)c2n1` [Compound 8, 3-(1-(1-(4-((6-amino-8-hydroxy-2-(2-methoxyethoxy)-9H-purin-9-yl)methyl)phenyl)-1-oxo-5,8,11,14,17,20,23,26,29,32-decaoxa-2-azatetratriacontan-34-yl)-1H-1,2,3-triazol-4-yl)propanoic acid] the “neutrophils recruited to the peritoneum” value (C57BL/6 mice [5]; [8]) was “reduction”, the “total cells recruited to the peritoneum” value (C57BL/6 mice [5]; [8]) was “reduction” and the “adverse reaction compared to TG” value (C57BL/6 mice [5]; mouse, in vivo) was “no additional adverse reaction”. The “cell infiltration, particularly neutrophil, to the peritoneal cavity” value (C57BL/6 mice [5]; oral route) was “reduced cell infiltration”, the “cell infiltration, particularly neutrophil, to the peritoneal cavity” value (C57BL/6 mice [5]; systemic (intravenous) route) was “reduced cell infiltration” and the “potency compared to the unconjugated TLR7 (SM)” value (TLR7 [1]; RAW264, BMDM, 18 hours) was “less potency”. The “potency of cytokine induction in comparison to the unmodified TLR7 agonist” value (TLR7 [1]) was “attenuated”, the “solubility in aqueous solution” value (Solubility observations) was “improves dramatically” and the “EAE clinical score / severity of symptoms” value (C57BL/6 mice [6]; 50 nmoles i.v. every day from day 6, days 11-17) was “significantly reduces the severity of EAE symptoms”. The adverse reaction (C57BL/6 mice [6]; mouse, in vivo) was “no additional adverse reaction”, the “IL-6 induction in serum” value ([7]; 200 nmol per animal i.v.) was “only a low level” and the “TNFα induction in serum” value ([7]; 200 nmol per animal i.v., any point post injection) was “no significant induction”. For the same compound, the “IL-6 or TNFα stimulating activity” value ([7]; FIGS. 4A-B) was “little or no IL-6 or TNFα stimulating activity”, the antagonistic activity ([7]; concluded from FIGS. 4A-B, 7A-B and 8) was “antagonistic activity under certain conditions” and the “IL-12 and IL-6 induction” value (TLR7 [3]) was “little or no IL-12 and IL-6”.
